# Assay results as given in patent US20250101204A1, “COMPOSITIONS AND METHODS FOR PROTECTING AGAINST CELL DAMAGE AND INFLAMMATION” (priority 2022, published 2025).
# Changes are numbered by the printed parent chain. Entries after “also recorded” stand apart in the source; their conditions may differ. Read-outs that look alike come from different tables or passages of the source. Peptide text beside a SMILES is read from it. * marks the point of attachment. Cbz = O=C(OCc1ccccc1)*
# Assays:
# HMGB1 [1] = target: T1, HMGB1 (Homo sapiens, UniProt P09429); assay: HMGB1 cytosol/nuclear distribution in fractionated PASMC; assay type: cell-based; conditions: for cytosol and nuclear levels of HMGB1: PASMC cytosolic and nuclear fraction; for exit of nuclear HMGB1 to the cytosol: especially evident in male cells
# T1 construct: endogenous in cells; host or cells: pulmonary artery smooth muscle cells (PASMC), male and female
# T1 sequence (P09429 1-215): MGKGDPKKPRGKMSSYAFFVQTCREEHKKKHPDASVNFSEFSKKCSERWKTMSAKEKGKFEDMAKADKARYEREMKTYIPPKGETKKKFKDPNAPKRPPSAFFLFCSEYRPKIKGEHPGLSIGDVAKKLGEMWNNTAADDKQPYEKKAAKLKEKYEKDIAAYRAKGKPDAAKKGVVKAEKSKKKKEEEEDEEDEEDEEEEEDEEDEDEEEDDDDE
# Source text: FIGS. 1A, 1B, 1C, and 1D show only intracellular Cysteine^106 lowers HMGB1 levels in both fractions. FIGS. 1A and 1B show peptides that bind to HMGB1^Cys106 but not HMGB1^Cys23/45 reduce HMGB1 levels in PASMC cytosolic and nuclear fraction.
# FIGS. 2A and 2B show […] increases HMGB1 expulsion from the nucleus to cytosol. A proteasome inhibitor (e.g., MG 132) restores cytosolic (FIG. 2A) and nuclear (FIG. 2B) HMGB1 levels reduced by αHMGB1^Cys106 peptide.
# (§1) To study the activities of HMGB1 cysteines, peptides were designed that bind to the specific regions of HMGB1 and, by shielding either Cys106 or Cys23/45, prevent their interaction with the downstream targets. The peptides with cell-penetrating TAT sequences were used to study the intracellular role of HMGB1 cysteines, while peptides without TAT served as extracellular controls. Fractionating pulmonary artery smooth muscle cells (PASMC) allowed the evaluation of HMGB1 cytosol/nuclear distribution. […] The protective role of peptide in vivo was estimated using the rat Sugen/Hypoxia PH model. Given the discovered sex difference in the HMGB1-mediated signaling, the in vitro and in vivo studies were replicated in male and female animals and cells.
# (§2) To study the activities of HMGB1 cysteines, peptides were designed with cell-penetrating TAT sequences that bind to either Cys106 or Cys23/45 and prevent the interaction of these cysteines with the downstream targets. The intracellular activities of peptides were evaluated by measuring HMGB1 cytosol/nuclear distribution and the ability to regulate the recombinant HMGB1 binding to double-stranded DNA. The protective role of the Cys106-shielding peptide (αHMGB1^Cys106; SEQ ID NO: 4) was estimated using the rat Sugen/Hypoxia (Su/Hx) PAH model and human endothelial pulmonary artery cells (hPAEC).
# [2] = target: T2, recombinant fully reduced HMGB1 (Homo sapiens, UniProt P09429); assay: HMGB1 binding to calf thymus double-stranded DNA cellulose with or without shielding peptide; assay type: biochemical
# T2 sequence (P09429 1-215): T1 sequence (P09429 1-215)
# Description: The left two gel blots show HMGB1 elution after incubation with DNA cellulose.
# as §1
# as §2, with “The protective role of the Cys106-shielding peptide (αHMGB1^Cys106; SEQ ID NO: 4) was estimated using the rat Sugen/Hypoxia (Su/Hx) PAH model and human endothelial pulmonary artery cells (hPAEC).” left out
# p53 [3] = assay: p53 levels in nuclei of PASMC; assay type: cell-based
# Source text: as §1
# TLR4 = assay: cytosolic and nuclear TLR4 protein levels; assay type: cell-based
# Source text: as §1
# apoptosis = assay: cell apoptosis induced by the p53 activator; assay type: cell-based
# [4] = system: human pulmonary artery endothelial cells (HPAEC); assay: apoptosis in HPAEC stimulated by RITA; assay type: cell-based
# Description: as §2
# [5] = system: human pulmonary artery endothelial cells (HPAEC); assay: genotoxic stress induced in HPAEC by Doxorubicin; assay type: cell-based; conditions: Doxorubicin 1 μg/ml for 24 h
# Description: as §2
# [6] = system: rat Sugen/Hypoxia (Su/Hx) PAH model; assay: rat Sugen/Hypoxia (Su/Hx) PAH model, hemodynamics and right ventricle; assay type: in vivo; conditions: for right ventricle (RV) systolic pressure / protection of the RV: females, 2.5 mg/kg/day i.p.; for right ventricle (RV) systolic pressure: early stage of PH; for protection of the RV: later stage of PH; for hemodynamic parameters / protection in males: male PH rats
# Source text: as §1, with “cells. […]” for “cells.”
# as §2, with “(hPAEC). […]” for “(hPAEC).”
# HMGB1 [7] = target: T3, HMGB1 (Rattus norvegicus, UniProt P63159); assay: plasma HMGB1 levels in Su/Hx rats; assay type: in vivo
# T3 construct: from tissue; host or cells: plasma of Su/Hx rats
# T3 sequence (P63159 1-215): T1 sequence (P09429 1-215) with E189D, D202E
# Source text: FIGS. 11A and 11B show the sex differences in plasma HMGB1 levels in response to αHMGB1^Cys106 peptides (e.g., SEQ. ID NO: 4) in early PH stages. Note: SU2 is related to the 2 weeks after exposure to SU5416 (PAH inducer), and is indicative of a relatively early disease stage; SU5 means 5 weeks after exposure to SU5416, and is indicative of an advanced stage of the disease.
# The cytosol and nuclear levels of HMGB1 were affected by a cell-penetrating peptide designed to shield Cys106 (TAT-α-HMGB1^Cys106, or α-Cys106) and not any other peptide.
# [8] = system: lungs and heart of Su/Hx rats; assay: lung and heart cell damage readouts in Su/Hx rats (apoptosis, senescence, necroptosis, genotoxic stress, fibrosis, hypertrophy); assay type: in vivo, rat; conditions: for genotoxic stress in vivo: Su/Hx rats, in b88 males; for senescence: female and early-stage male PAH
# p53 [9] = assay: p53 expression in vivo in Su/Hx rats; set-up: species or system rat; conditions: either sex
# [10] = listed as α-Cys106, 2.5 mg/kg/day
compound,measurement,setting,value
"CC(C)C[C@@H](C=O)NC(=O)[C@H](CC(C)C)NC(=O)[C@H](CC(C)C)NC(=O)OCc1ccccc1 [MG 132, reference compound] (Cbz-Leu-Leu-Leu-aldehyde)","cytosolic and nuclear HMGB1 levels reduced by αHMGB1^Cys106 peptide, effect of proteasome inhibitor","HMGB1 [1]; FIGS. 2A, 2B",restores
"FFLFCSEYRPKIKGRKKRRQRRRPQ [αHMGB1^Cys106 peptide, cell-penetrating TAT peptide designed to shield HMGB1 Cys106]",HMGB1 binding to DNA (HMGB1 elution after incubation with DNA cellulose),[2]; FIG. 3,prevents HMGB1 binding to DNA
same,decrease in HMGB1 binding to DNA,"[2]; recombinant HMGB1, double-stranded DNA cellulose",~5.9 fold
same,degradation of HMGB1,HMGB1 [1],lysosomal degradation
same,cytosol and nuclear levels of HMGB1,HMGB1 [1],reduced; also recorded: affected
same,cytosol and nuclear levels of HMGB1,HMGB1 [1]; listed as HMGB1^Cys106 peptide,reduces HMGB1 levels
same,cytosol and nuclear levels of HMGB1,HMGB1 [1]; listed as TAT-α-HMGB1^Cys106,affected
same,exit of nuclear HMGB1 to the cytosol,HMGB1 [1],enhancing the nuclear HMGB1 exit to the cytosol
same,exit of nuclear HMGB1 to the cytosol,HMGB1 [1]; listed as α-Cys106,enhanced the exit of nuclear HMGB1 to the cytosol
same,degradation of HMGB1,HMGB1 [1]; listed as α-Cys106,induced its proteasomal degradation
same,HMGB1 level in PASMC,"HMGB1 [1]; relative to untreated 1±0.097, N=6",0.428±0.045
same,HMGB1 level in PASMC with proteasome inhibitor,"HMGB1 [1]; α-Cys106 plus proteasome inhibitor MG132, 10 μM, 1 hr, untreated 1±0.097, N=6",0.885±0.049
same,p53 levels / expression,p53 [3],reduces p53 levels
same,p53 levels / expression,p53 [3]; listed as α-Cys106,negatively affected
same,TLR4 protein levels / expression,TLR4,reduces cytosolic and nuclear TLR4 protein levels
same,TLR4 protein levels / expression,TLR4; listed as α-Cys106,negatively affected
same,cell apoptosis,apoptosis,attenuates apoptosis
same,cell apoptosis,apoptosis; listed as α-Cys106,reduced cell apoptosis
same,apoptosis in HPAEC,[4],anti-apoptotic effect
same,genotoxic stress in HPAEC,[5],protective effect
same,right ventricle systolic pressure,"[6]; female Su/Hx rats, preventive study, 2.5 mg/kg/day i.p. for 2 wks, Su/Hx alone 73.2±3.4, p=0.0002",50.4±3.0 mmHg
same,right ventricle systolic pressure,"[6]; female Su/Hx rats, treatment study, 2.5 mg/kg/day i.p. for 2 wks, Su/Hx alone 110.5±6.3, p=0.0005",70.0±2.8 mmHg
same,right ventricle (RV) systolic pressure,[6]; 2.5 mg/kg/day,decreases right ventricle (RV) systolic pressure
same,right ventricle (RV) systolic pressure,[6]; [10],decreased right ventricle (RV) systolic pressure
same,protection of the RV,[6]; 2.5 mg/kg/day,protects the RV
same,protection of the RV,[6]; [10],protected the RV
same,hemodynamic parameters / protection in males,[6],protected only by treatment protocol
same,hemodynamic parameters / protection in males,[6]; listed as α-Cys106,no changes
same,right ventricle systolic pressure,"[6]; male Su/Hx rats, treatment protocol, 2.5 mg/kg/day i.p. for 2 wks, Su/Hx alone 101.7±2.7, p=0.0007, N=5-8",73.4±6.4 mmHg
same,PAH severity in Su/Hx model,"[6]; rat Su/Hx, 2.5 mg/kg/day i.p. for 2 wks, 2.5 mg/kg/day",protective and treatment effects; also recorded: significantly attenuated PAH
same,plasma HMGB1 levels,"HMGB1 [7]; females, 2.5 mg/kg/day i.p.",reduced plasma HMGB1 levels
same,plasma HMGB1,HMGB1 [7]; male PH rats,no changes
same,genotoxic stress in vivo,[8],protects against genotoxic stress
same,genotoxic stress in vivo,[8]; listed as αHMGB1^Cys106,inhibited genotoxic stress
same,apoptosis in the lungs,[8]; female Su/Hx rats,decreases apoptosis; also recorded: mediates protection against apoptosis
same,apoptosis in the lungs,"[8]; female Su/Hx rats, listed as α-Cys106",anti-apoptotic effect
same,apoptosis in the lungs,"[8]; female Su/Hx rats, listed as αHMGB1^Cys106",reduced pulmonary apoptosis and senescence
same,senescence,[8],protects against senescence
same,senescence,[8]; listed as αHMGB1^Cys106,reduced pulmonary apoptosis and senescence
same,cardiac fibrosis,[8]; heart of male Su/Hx rats,anti-fibrotic activity
same,apoptosis in the lungs,[8]; male Su/Hx rats,does not manifest
same,necroptosis,[8]; males at early PAH,protects against necroptosis
same,cardiomyocyte hypertrophy,"[8]; rat, in vivo",protective effect
same,expression of p53 in vivo,p53 [9],reduces expression of p53
same,expression of p53 in vivo,p53 [9]; listed as αHMGB1^Cys106,negative regulation of p53 expression
SIGDVAKKLGEMWNNGRKKRRQRRRPQ [HMGB1^Cys23/45],cytosol and nuclear levels of HMGB1,HMGB1 [1],not
